Data: US10167292B2, “Benzodiazepines as bromodomain inhibitors” (Catalyst Therapeutics Pty Ltd, priority 2015, dated 2019)

Columns and labels:
BRD-3 (Domain 1) = BRD-3 (Domain 1) (Homo sapiens (Human), UniProt Q15059); test: AlphaScreen BRD binding assay, BRD-3 (Domain 1); conditions: acetyl-histone H4 peptide 2.5 nM, protein 80 nM
Method: (§1) Biological Characterization Assay Conditions Binding Assay
BRD binding and inhibition was assessed by measuring the interaction of biotinylated acetyl-histone H4 peptide (Anaspec #64989) with the BRD target protein utilising AlphaScreen® technology (Perkin Elmer). In a white 384-well low volume plate (Greiner #784076), 100 nL of compound series in DMSO (0.5% final concentration) was added to the BRD target protein (80 nM final). After 30 min incubation at RT, H4 peptide was added to a final concentration of 2.5 nM. AlphaScreen streptavidin donor beads and AlphaScreen nickel chelate acceptor beads were added to a final concentration of 10 ug/mL each and allowed to incubate in a darkened environment for 1 h at RT. Plates were read on an EnVision plate reader (Perkin Elmer) and IC50's calculated using a four parameter non-linear curve fit.
These conditions are identical for all BRDs screened except BRD2D2 which uses 160 nM protein and 1.25 nM peptide.

BRD-4 (Domain 2) = BRD-4 (Domain 2) (Homo sapiens (Human), UniProt O60885); test: AlphaScreen BRD binding assay, BRD-4 (Domain 2); conditions: acetyl-histone H4 peptide 2.5 nM, protein 80 nM
Method: as §1
(§2) AlphaScreen streptavidin donor beads and AlphaScreen nickel chelate acceptor beads were added to a final concentration of 10 ug/mL each and allowed to incubate in a darkened environment for 1 h at RT. Plates were read on an EnVision plate reader (Perkin Elmer) and IC50's calculated using a four parameter non-linear curve fit.

BRD-4 (Domain 1) = BRD-4 (Domain 1) (Homo sapiens (Human), UniProt O60885); test: AlphaScreen BRD binding assay, BRD-4 (Domain 1); conditions: acetyl-histone H4 peptide 2.5 nM, protein 80 nM
Method: as §1, §2

HL-60 = test: Cell proliferation assay (CellTiter-Glo), HL-60; type: cell-based; conditions: Homo sapiens, HL-60 cells, 72 h
Method: (§3) The cells were prepared in the required fashion (suspension or adherent). The cells were initially washed once in the culture medium that they would be finally treated in. Following this 10 ml of the test medium was added and the cells. The mixture was pipetted gently several times.
(§4) The cells were counted and then the volume was spun down to the volume necessary for the total number of cells needed. The cells were then resuspended in the appropriate test medium to the desired concentration. In general, the final concentration of non-adherent cells was 2×10^5 cells/ml i.e. 10,000 cells per 50 μ1. Once the desired concentration had been reached, 50 µl of the cells were added to the appropriate wells and the cells were incubated for 72 h at 37° C.
(§5) CellTiter-Glo Luminescent Assay (Kit G7571—See Promega's Instruction Manual for Additional Details):
(§6) Both reagents were pre-warmed to RT. The buffer was thawed in a 37° C. water bath until it had just completely thawed. It was then left on a bench at RT for at least 30 min.
(§7) Following this the substrate and buffer were mixed together. To ensure that the substrate was dissolved, the mixture was inverted several times.
(§8) The cell culture plates were removed from the incubator and were then allowed to adjust to RT for at least 30 min.
(§9) Afterwards 40 μL of the reagent was added to 100 μL of the culture medium. […] The plates were then incubated for 10 min on the bench. The luminescence could then be read using a luminescence plate reader.

BRD-2 (Domain 1) = BRD-2 (Domain 1) (Homo sapiens (Human), UniProt P25440); test: AlphaScreen BRD binding assay, BRD-2 (Domain 1); conditions: acetyl-histone H4 peptide 2.5 nM, protein 80 nM
Sequence of BRD-2 (Domain 1) (P25440 74-180): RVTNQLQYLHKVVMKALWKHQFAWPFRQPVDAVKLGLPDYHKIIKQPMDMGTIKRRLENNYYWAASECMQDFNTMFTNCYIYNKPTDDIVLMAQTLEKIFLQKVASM
Method: as §1, §2

BRD-2 (Domain 2) = BRD-2 (Domain 2) (Homo sapiens (Human), UniProt P25440); test: AlphaScreen BRD binding assay, BRD-2 (Domain 2); conditions: 160 nM protein and 1.25 nM peptide
Sequence of BRD-2 (Domain 2) (P25440 344-453): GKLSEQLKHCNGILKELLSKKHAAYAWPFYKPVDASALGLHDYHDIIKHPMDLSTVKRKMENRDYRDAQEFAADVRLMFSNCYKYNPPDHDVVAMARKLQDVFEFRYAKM
Method: as §1, §2

MV4; 11 = test: Cell proliferation assay (CellTiter-Glo), MV4;11; type: cell-based; conditions: Homo sapiens, MV4;11 cells, 72 h
Method: as §3, §4, §5, §6, §7, §8, §9

Sequence of BRD-3 (Domain 1) (Q15059 34-140): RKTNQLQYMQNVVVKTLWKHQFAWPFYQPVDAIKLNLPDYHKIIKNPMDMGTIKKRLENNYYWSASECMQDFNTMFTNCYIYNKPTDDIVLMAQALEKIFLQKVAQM

Row | Compound | IC50 (BRD-3 (Domain 1)) [nM] | IC50 (BRD-4 (Domain 2)) [nM] | IC50 (BRD-4 (Domain 1)) [nM] | IC50 (HL-60) [nM] | IC50 (BRD-2 (Domain 1)) [nM] | IC50 (BRD-2 (Domain 2)) [nM] | IC50 (MV4; 11) [nM]
1 | Cc1nnn2c1-c1ccc(C(=O)NC(C)c3ccc(F)cc3)cc1N(c1ccc(Cl)cc1)CC2 (stereo in doubt) [Example 33, 7-(4-chlorophenyl)-N—((R)-1-(4-fluorophenyl)ethyl)-1-methyl-6,7-dihydro-5H-benzo[f][1,2,3]triazolo[1,5-d][1,4]diazepine-9-carboxamide] | < 100 | – | – | – | – | – | –
2 | Cc1nnn2c1-c1ccccc1N(c1ccccc1)CC2 [Example 5, 1-methyl-7-phenyl-6,7-dihydro-5H-benzo[f][1,2,3]triazolo[1,5-d][1,4]diazepine] | – | < 100 | < 100 | – | – | – | –
3 | Cc1nnn2c1-c1ccccc1N(c1ccc(Cl)cc1)CC2 [Example 11, 7-(4-chlorophenyl)-1-methyl-6,7-dihydro-5H-benzo[f][1,2,3]triazolo[1,5-d][1,4]diazepine] | – | – | – | 1000 to 5000 | – | – | –
4 | Cc1nnn2c1-c1ccccc1N(c1ccc(Cl)cc1)C[C@@H]2C [Example 13, 7-(4-chlorophenyl)-1,5-dimethyl-6,7-dihydro-5H-benzo[f][1,2,3]triazolo[1,5-d][1,4]diazepine] | – | – | – | < 1000 | < 100 | < 100 | –
5 | Cc1nnn2c1-c1ccc(Br)cc1N(c1ccc(Cl)cc1)CC2C (stereo not drawn) [Example 14, 9-Bromo-7-(4-chlorophenyl)-1,5-dimethyl-6,7-dihydro-5H-benzo[f][1,2,3]triazolo[1,5-d][1,4]diazepine] | – | – | – | < 1000 | – | – | –
6 | Cc1nnn2c1-c1ccccc1N(c1ccc(Cl)cc1)C[C@H]2C [Example 16, (5R)-7-(4-chlorophenyl)-1,5-dimethyl-6,7-dihydro-5H-benzo[f][1,2,3]triazolo[1,5-d][1,4]diazepine] | – | – | – | < 1000 | < 100 | < 100 | –
7 | Cc1nnn2c1-c1ccccc1N(c1ccc(Cl)cc1)CC2CCO (stereo not drawn) [Example 21, 2-(7-(4-chlorophenyl)-1-methyl-6,7-dihydro-5H-benzo[f][1,2,3]triazolo[1,5-d][1,4]diazepin-5-yl)ethanol] | < 100 | < 100 | < 100 | 1000 to 5000 | 100 to 1000 | < 100 | –
8 | Cc1nnn2c1-c1ccccc1N(c1cccc(Br)c1)CC2 [Example 22, 7-(3-Bromophenyl)-1-methyl-6,7-dihydro-5H-benzo[f][1,2,3]triazolo[1,5-d][1,4]diazepine] | < 100 | < 100 | < 100 | 1000 to 5000 | 100 to 1000 | < 100 | –
9 | C=Cc1cccc(N2CCn3nnc(C)c3-c3ccccc32)c1 [Example 23, 1-Methyl-7-(3-vinylphenyl)-6,7-dihydro-5H-benzo[f][1,2,3]triazolo[1,5-d][1,4]diazepine] | < 100 | < 100 | < 100 | 1000 to 5000 | 100 to 1000 | < 100 | –
10 | Cc1nnn2c1-c1ccccc1N(c1cccc(C(O)CO)c1)CC2 (stereo not drawn) [Example 24, 1-(3-(1-methyl-5H-benzo[f][1,2,3]triazolo[1,5-d][1,4]diazepin-7(6H)-yl)phenyl)ethane-1,2-diol] | < 100 | < 100 | < 100 | 1000 to 5000 | < 100 | < 100 | –
11 | FC(F)c1nnn2c1-c1ccccc1N(c1ccc(Cl)cc1)CC2 [Example 29, 7-(4-chlorophenyl)-1-(difluoromethyl)-6,7-dihydro-5H-benzo[f][1,2,3]triazolo[1,5-d][1,4]diazepine] | – | 100 to 1000 | 100 to 1000 | – | > 1000 | 100 to 1000 | –
12 | Cc1nnn2c1-c1ccc(CCN3CCOCC3)cc1N(c1ccc(Cl)cc1)CC2 [Example 30, 4-(2-(7-(4-chlorophenyl)-1-methyl-6,7-dihydro-5H-benzo[f][1,2,3]triazolo[1,5-d][1,4]diazepin-9-yl)ethyl)morpholine] | 100 to 1000 | 100 to 1000 | 100 to 1000 | 1000 to 5000 | 100 to 1000 | 100 to 1000 | –
13 | COC(=O)c1ccc2c(c1)N(c1ccc(Cl)cc1)CCn1nnc(C)c1-2 [Example 31, methyl 7-(4-chlorophenyl)-1-methyl-5,6-dihydrotriazolo[1,5-d][1,4]benzodiazepine-9-carboxylate] | – | – | – | < 1000 | – | – | < 1000
14 | Cc1nnn2c1-c1ccc(C(=O)NCc3ccccc3)cc1N(c1ccc(Cl)cc1)CC2 [Example 37, N-benzyl-7-(4-chlorophenyl)-1-methyl-6,7-dihydro-5H-benzo[f][1,2,3]triazolo[1,5-d][1,4]diazepine-9-carboxamide] | – | < 100 | < 100 | – | – | – | –
15 | Cc1nnn2c1-c1ccc(C(=O)NC(c3ccccc3)c3ccccc3)cc1N(c1ccc(Cl)cc1)CC2 [Example 38, N-benzhydryl-7-(4-chlorophenyl)-1-methyl-6,7-dihydro-5H-benzo[f][1,2,3]triazolo[1,5-d][1,4]diazepine-9-carboxamide] | < 100 | – | – | – | 100 to 1000 | < 100 | –

Further lines, results first:

Row | IC50 (BRD-3 (Domain 1)) [nM] | IC50 (BRD-4 (Domain 2)) [nM] | IC50 (BRD-4 (Domain 1)) [nM] | IC50 (HL-60) [nM] | IC50 (BRD-2 (Domain 1)) [nM] | IC50 (BRD-2 (Domain 2)) [nM] | IC50 (MV4; 11) [nM] | Compound
16 | – | – | – | < 1000 | – | – | – | Cc1nnn2c1-c1ccc(-c3cnc(N)nc3)cc1N(c1ccc(Cl)cc1)CC2 [Example 12, 5-(7-(4-chlorophenyl)-1-methyl-6,7-dihydro-5H-benzo[f][1,2,3]triazolo[1,5-d][1,4]diazepin-9-yl)pyrimidin-2-amine]
17 | < 100 | < 100 | < 100 | – | – | – | – | Cc1nnn2c1-c1ccc(Cn3cccn3)cc1N(c1ccc(Cl)cc1)CC2 [Example 20, 9-((1H-pyrazol-1-yl)methyl)-7-(4-chlorophenyl)-1-methyl-6,7-dihydro-5H-benzo[f][1,2,3]triazolo[1,5-d][1,4]diazepine]
18 | – | < 100 | < 100 | 1000 to 5000 | – | – | < 1000 | Cc1nnn2c1-c1ccc(C(=O)NS(C)(=O)=O)cc1N(c1ccc(Cl)cc1)CC2 [Example 41, 7-(4-chlorophenyl)-1-methyl-N-(methylsulfonyl)-6,7-dihydro-5H-benzo[f][1,2,3]triazolo[1,5-d][1,4]diazepine-9-carboxamide]
19 | – | < 100 | < 100 | – | – | – | – | Cc1nnn2c1-c1ccc(C(N)=O)cc1N(c1ccc(Cl)cc1)CC2 [Example 42, 7-(4-chlorophenyl)-1-methyl-6,7-dihydro-5H-benzo[f][1,2,3]triazolo[1,5-d][1,4]diazepine-9-carboxamide]
20 | – | < 100 | < 100 | – | < 100 | < 100 | – | Cc1nnn2c1-c1ccc(C(=O)NO)cc1N(c1ccc(Cl)cc1)CC2 [Example 44, 7-(4-Chlorophenyl)-N-hydroxy-1-methyl-6,7-dihydro-5H-benzo[f][1,2,3]triazolo[1,5-d][1,4]diazepine-9-carboxamide]
21 | – | < 100 | < 100 | – | – | – | – | Cc1nnn2c1-c1ccc(C#N)cc1N(c1ccc(Cl)cc1)CC2 [Example 47, 7-(4-chlorophenyl)-1-methyl-6,7-dihydro-5H-benzo[f][1,2,3]triazolo[1,5-d][1,4]diazepine-9-carbonitrile]
22 | – | < 100 | < 100 | – | < 100 | < 100 | – | CON(C)C(=O)c1ccc2c(c1)N(c1ccc(Cl)cc1)CCn1nnc(C)c1-2 [Example 48, 7-(4-Chlorophenyl)-N-methoxy-N, 1-dimethyl-6,7-dihydro-5H-benzo[f][1,2,3]triazolo[1,5-d][1,4]diazepine-9-carboxamide]
23 | – | < 100 | < 100 | – | – | – | – | Cc1nnn2c1-c1ccc(C(O)C(F)(F)F)cc1N(c1ccc(Cl)cc1)CC2 (stereo not drawn) [Example 50, 1-(7-(4-Chlorophenyl)-1-methyl-6,7-dihydro-5H-benzo[f][1,2,3]triazolo[1,5-d][1,4]diazepin-9-yl)-2,2,2-trifluoroethanol]
24 | – | < 100 | < 100 | > 5000 | – | – | < 1000 | Cc1nnn2c1-c1ccc(-c3nn[nH]n3)cc1N(c1ccc(Cl)cc1)CC2 [Example 51, 7-(4-chlorophenyl)-1-methyl-9-(2H-tetrazol-5-yl)-6,7-dihydro-5H-benzo[f][1,2,3]triazolo[1,5-d][1,4]diazepine]
